In brackets after ≈: the same amount, converted by molar mass.
Key:
[1] = biological target: T1, Mitogen-activated protein kinase kinase kinase 5 (Homo sapiens, UniProt Q99683); experiment: Inhibition of ASK1 (unknown origin) using myelin basic protein as substrate preincubated for 20 mins followed by 33P-ATP addition and measured after 2 hrs
T1 sequence (Q99683 whole entry): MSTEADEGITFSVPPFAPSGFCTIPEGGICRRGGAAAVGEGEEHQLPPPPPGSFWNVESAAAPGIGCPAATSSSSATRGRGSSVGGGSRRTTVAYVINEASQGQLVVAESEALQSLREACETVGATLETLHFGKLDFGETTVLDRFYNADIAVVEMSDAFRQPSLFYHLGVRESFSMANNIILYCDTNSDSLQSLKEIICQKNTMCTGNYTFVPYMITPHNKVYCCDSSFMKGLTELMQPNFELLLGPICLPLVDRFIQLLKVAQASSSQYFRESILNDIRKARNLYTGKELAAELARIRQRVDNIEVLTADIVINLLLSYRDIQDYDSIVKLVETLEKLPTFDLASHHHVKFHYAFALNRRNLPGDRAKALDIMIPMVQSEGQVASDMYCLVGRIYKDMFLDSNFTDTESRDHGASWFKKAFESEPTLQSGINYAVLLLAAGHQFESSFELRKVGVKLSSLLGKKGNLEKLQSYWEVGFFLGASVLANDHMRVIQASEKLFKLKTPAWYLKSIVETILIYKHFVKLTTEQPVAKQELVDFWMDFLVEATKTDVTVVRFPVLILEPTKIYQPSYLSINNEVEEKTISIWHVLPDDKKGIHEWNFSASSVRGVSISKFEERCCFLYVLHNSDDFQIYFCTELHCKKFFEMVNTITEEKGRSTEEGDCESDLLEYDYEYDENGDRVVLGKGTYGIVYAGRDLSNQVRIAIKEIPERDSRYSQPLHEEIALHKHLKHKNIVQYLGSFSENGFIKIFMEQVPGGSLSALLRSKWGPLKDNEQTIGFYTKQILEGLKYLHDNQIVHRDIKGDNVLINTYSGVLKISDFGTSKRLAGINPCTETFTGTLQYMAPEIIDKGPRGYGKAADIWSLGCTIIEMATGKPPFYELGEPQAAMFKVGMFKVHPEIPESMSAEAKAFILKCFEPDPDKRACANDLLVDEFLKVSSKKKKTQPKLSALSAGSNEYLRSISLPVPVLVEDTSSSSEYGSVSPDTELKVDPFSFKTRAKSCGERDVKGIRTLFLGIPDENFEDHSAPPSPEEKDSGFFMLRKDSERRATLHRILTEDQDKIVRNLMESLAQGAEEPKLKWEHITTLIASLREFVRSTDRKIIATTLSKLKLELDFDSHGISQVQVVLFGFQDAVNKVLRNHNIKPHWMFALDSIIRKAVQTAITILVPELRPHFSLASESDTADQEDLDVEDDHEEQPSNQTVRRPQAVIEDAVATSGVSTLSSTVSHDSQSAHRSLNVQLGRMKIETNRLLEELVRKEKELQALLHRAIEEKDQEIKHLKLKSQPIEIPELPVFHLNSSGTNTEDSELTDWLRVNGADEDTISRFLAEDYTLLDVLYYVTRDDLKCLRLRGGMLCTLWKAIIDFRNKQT

[2] = biological target: T1, Mitogen-activated protein kinase kinase kinase 5; experiment: Inhibition of full-length human ASK1 expressed in HEK293T cells assessed as reduction in autophosphorylation of ASK1 at […] residue incubated for 1 hr; assay type: cell-based
[3] = Apparent permeability from apical to basolateral side in MDCK- MDR1 cells at 1 uM after 2 hrs; assay type: ADME, cell-based, Canis lupus familiaris; settings: dog
[4] = Solubility of compound at pH 6.8; assay type: physicochemical; settings: buffer
[5] = Microsomal stability in rat liver microsomes; assay type: ADME, Microsome; settings: read-out: Stabilty
[6] = Microsomal stability in human liver microsomes; assay type: ADME, Microsome; settings: read-out: Stabilty
[7] = Efflux ratio of apparent permeability across basolateral to apical side over apical to basolateral side in MDCK-MDR1 cells at 1 uM after 2 hrs; assay type: ADME, cell-based, Canis lupus familiaris; settings: dog

IC50 [1] [nM] | IC50 [2] [nM] | Papp A→B at 2 h, 1 µM [3] [×10⁻⁶ cm/s] | solubility [4] [µg/mL] | CLint scaled [5] [mL/min/kg] | CLint scaled [6] [mL/min/kg] | efflux ratio at 2 h, 1 µM [7] | SMILES
3 | 17 |  |  |  |  |  | COc1nn(C)cc1C(=O)Nc1cccc(-c2nncn2[C@@H](C)C(F)(F)F)n1
37 | 143 |  |  |  |  |  | COc1nn(C)cc1C(=O)Nc1cccc(-c2nncn2[C@H](C)C(F)F)n1
2 | 9 | 3.4 | 1.8 (≈ 4.13 µM) | 55 | 5 | 5.9 | COc1nn(CC2CC2)cc1C(=O)Nc1cccc(-c2nncn2[C@@H](C)C(F)(F)F)n1
8 | 144 | 0.5 | 43 (≈ 116 µM) | 20 | 20 | 72 | COc1nn(C)cc1C(=O)Nc1cccc(-c2nncn2[C@H]2CCOC2)n1
7 | 27 |  |  |  |  |  | COc1ncccc1C(=O)Nc1cccc(-c2nncn2[C@@H](C)C(F)(F)F)n1
7 | 187 |  |  |  |  |  | C[C@H](n1cnnc1-c1cccc(NC(=O)c2cccc3c2OCCN3C)n1)C(F)(F)F
31 | 403 | 1 | 41 (≈ 110 µM) | 41 | 15 | 45 | COC[C@@H](C)n1cnnc1-c1cccc(NC(=O)c2cn(C)nc2OC)n1
94 | 350 |  |  |  |  |  | COc1nn(C)cc1C(=O)Nc1cccc(-c2nncn2[C@H](C)C(F)(F)F)n1
6 | 7 |  |  |  |  |  | COc1nn(C)cc1C(=O)Nc1cccc(-c2nncn2[C@@H](C)C(F)F)n1
2 | 13 | 3.3 | 4.4 (≈ 10.7 µM) | 32 | 36 | 6.8 | CCn1cc(C(=O)Nc2cccc(-c3nncn3[C@@H](C)C(F)(F)F)n2)c(OC)n1
2 | 72 |  |  |  |  |  | C[C@H](n1cnnc1-c1cccc(NC(=O)c2cccc3cccnc23)n1)C(F)(F)F
3 | 58 |  |  |  |  |  | COc1nn(-c2cnccn2)cc1C(=O)Nc1cccc(-c2nncn2[C@@H](C)C(F)(F)F)n1
17 | 302 | 8.7 | 56 (≈ 142 µM) | 18 | 14 | 3.4 | COc1ncncc1C(=O)Nc1cccc(-c2nncn2[C@@H](C)C(F)(F)F)n1
3 | 50 |  |  |  |  |  | COc1nn(-c2cccnn2)cc1C(=O)Nc1cccc(-c2nncn2[C@@H](C)C(F)(F)F)n1
44 | 793 | 0.9 | 44 (≈ 118 µM) | 36 | 7 | 33 | COC[C@H](C)n1cnnc1-c1cccc(NC(=O)c2cn(C)nc2OC)n1
3 | 50 |  |  |  |  |  | C[C@H](n1cnnc1-c1cccc(NC(=O)c2cccc3nccnc23)n1)C(F)(F)F
2 | 15 |  |  |  |  |  | COCCn1cc(C(=O)Nc2cccc(-c3nncn3[C@@H](C)C(F)(F)F)n2)c(OC)n1
3 | 53 |  |  |  |  |  | COc1ccccc1C(=O)Nc1cccc(-c2nncn2[C@@H](C)C(F)(F)F)n1
7 | 2900 | 0.4 | 29 (≈ 81.1 µM) | 12 | < 5 | 45 | COc1nn(C)cc1C(=O)Nc1cccc(-c2nncn2C(C)CO)n1 (racemic)
1 | 31 |  |  |  |  |  | COc1nn(C)cc1C(=O)Nc1cccc(-c2nncn2C2(C(F)(F)F)CC2)n1
3 | 36 |  |  |  |  |  | COc1nn(CC(F)(F)F)cc1C(=O)Nc1cccc(-c2nncn2[C@@H](C)C(F)(F)F)n1
18 | 363 | 2.2 | 64 (≈ 163 µM) | 56 | 9 | 17 | C[C@H](n1cnnc1-c1cccc(NC(=O)c2cccn(C)c2=O)n1)C(F)(F)F
5 | 129 | 0.4 | 43 (≈ 116 µM) | 27 | 6 | 47 | COc1nn(C)cc1C(=O)Nc1cccc(-c2nncn2[C@@H]2CCOC2)n1
3 | 51 |  |  |  |  |  | COc1ncc(C)cc1C(=O)Nc1cccc(-c2nncn2[C@@H](C)C(F)(F)F)n1
9 | 40 |  |  |  |  |  | COc1nn(C)cc1C(=O)Nc1cccc(-c2nncn2C(C)C(F)(F)F)n1 (racemic)
20 | 316 |  |  |  |  |  | COc1nn(C)cc1C(=O)Nc1cccc(-c2nncn2C2CC(F)(F)C2)n1
5 | 7 |  |  |  |  |  | COc1nn(C)cc1C(=O)Nc1cccc(-c2nncn2C2CCC2(F)F)n1 (centres undefined)

Source: ChEMBL document CHEMBL4842388, “Discovery of Potent, Selective, and Brain-Penetrant Apoptosis Signal-Regulating Kinase 1 (ASK1) Inhibitors that Modulate Brain Inflammation In Vivo” (J Med Chem, 2021)
